Reference: paper PMC11084659, “The Development of CDC25A-Derived Phosphoseryl Peptides That Bind 14-3-3ε with High Affinities” (International Journal of Molecular Sciences, 2024)
Where a SMILES comes first, the peptide text is derived from it. [ ]: non-standard residue; d: D form. pS = N[C@@H](COP(=O)(O)O)C(=O)O

T1: 14-3-3ε (Homo sapiens, UniProt P62258)
T1 construct: purchased Novus Biologicals
T1 sequence (P62258 1-255): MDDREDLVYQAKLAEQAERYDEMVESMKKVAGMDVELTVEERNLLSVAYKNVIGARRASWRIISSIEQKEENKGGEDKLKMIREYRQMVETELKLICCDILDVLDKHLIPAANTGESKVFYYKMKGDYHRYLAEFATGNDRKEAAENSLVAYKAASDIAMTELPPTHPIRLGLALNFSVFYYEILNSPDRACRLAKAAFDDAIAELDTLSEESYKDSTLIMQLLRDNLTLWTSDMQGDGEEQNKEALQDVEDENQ

T2: (His)6-14-3-3ε (UniProt P62258 1-255)
T2 construct: 14-3-3 protein epsilon; also called His-tagged protein; source: bought: Novus Biologicals
T2 sequence (looked up): T1 sequence (P62258 1-255)

B1: pS(174–182) (peptide)
peptide: Ac-QRQN[pS]APAR-NH2
SMILES: CC(=O)N[C@@H](CCC(N)=O)C(=O)N[C@@H](CCCNC(=N)N)C(=O)N[C@@H](CCC(N)=O)C(=O)N[C@@H](CC(N)=O)C(=O)N[C@@H](COP(=O)(O)O)C(=O)N[C@@H](C)C(=O)N1CCC[C@H]1C(=O)N[C@@H](C)C(=O)N[C@@H](CCCNC(=N)N)C(N)=O
notes: CDC25A residues 174-182, with phosphoserine at 178; also called Ac-CDC25A(174–182)-NH2; source: synthetic peptide (Biosynth International Inc.), >95% purity
B2: [Lys^177]pS(174–182) (peptide)
peptide: Ac-QRQK[pS]APAR-NH2
SMILES: CC(=O)N[C@@H](CCC(N)=O)C(=O)N[C@@H](CCCNC(=N)N)C(=O)N[C@@H](CCC(N)=O)C(=O)N[C@@H](CCCCN)C(=O)N[C@@H](COP(=O)(O)O)C(=O)N[C@@H](C)C(=O)N1CCC[C@H]1C(=O)N[C@@H](C)C(=O)N[C@@H](CCCNC(=N)N)C(N)=O
notes: CDC25A residues 174-182, with phosphoserine at 178 and Asn177 replaced by Lys; source: synthetic peptide (Biosynth International Inc.), >95% purity
B3: [Phe^179]pS(174–182) (peptide)
peptide: Ac-QRQN[pS]FPAR-NH2
SMILES: CC(=O)N[C@@H](CCC(N)=O)C(=O)N[C@@H](CCCNC(=N)N)C(=O)N[C@@H](CCC(N)=O)C(=O)N[C@@H](CC(N)=O)C(=O)N[C@@H](COP(=O)(O)O)C(=O)N[C@@H](Cc1ccccc1)C(=O)N1CCC[C@H]1C(=O)N[C@@H](C)C(=O)N[C@@H](CCCNC(=N)N)C(N)=O
notes: CDC25A residues 174-182, with phosphoserine at 178 and Ala179 replaced by Phe; source: synthetic peptide (Biosynth International Inc.), >95% purity
B4: [Tyr^179]pS(174–182) (peptide)
peptide: Ac-QRQN[pS]YPAR-NH2
SMILES: CC(=O)N[C@@H](CCC(N)=O)C(=O)N[C@@H](CCCNC(=N)N)C(=O)N[C@@H](CCC(N)=O)C(=O)N[C@@H](CC(N)=O)C(=O)N[C@@H](COP(=O)(O)O)C(=O)N[C@@H](Cc1ccc(O)cc1)C(=O)N1CCC[C@H]1C(=O)N[C@@H](C)C(=O)N[C@@H](CCCNC(=N)N)C(N)=O
notes: CDC25A residues 174-182, with phosphoserine at 178 and Ala179 replaced by Tyr; source: synthetic peptide (Biosynth International Inc.), >95% purity
B5: [Phe^176]pS(174–182) (peptide)
peptide: Ac-QRFN[pS]APAR-NH2
SMILES: CC(=O)N[C@@H](CCC(N)=O)C(=O)N[C@@H](CCCNC(=N)N)C(=O)N[C@@H](Cc1ccccc1)C(=O)N[C@@H](CC(N)=O)C(=O)N[C@@H](COP(=O)(O)O)C(=O)N[C@@H](C)C(=O)N1CCC[C@H]1C(=O)N[C@@H](C)C(=O)N[C@@H](CCCNC(=N)N)C(N)=O
notes: CDC25A residues 174-182, with phosphoserine at 178 and Gln176 replaced by Phe; source: synthetic peptide (Biosynth International Inc.), >95% purity
B6: [Tyr^176]pS(174–182) (peptide)
peptide: Ac-QRYN[pS]APAR-NH2
SMILES: CC(=O)N[C@@H](CCC(N)=O)C(=O)N[C@@H](CCCNC(=N)N)C(=O)N[C@@H](Cc1ccc(O)cc1)C(=O)N[C@@H](CC(N)=O)C(=O)N[C@@H](COP(=O)(O)O)C(=O)N[C@@H](C)C(=O)N1CCC[C@H]1C(=O)N[C@@H](C)C(=O)N[C@@H](CCCNC(=N)N)C(N)=O
notes: CDC25A residues 174-182, with phosphoserine at 178 and Gln176 replaced by Tyr; source: synthetic peptide (Biosynth International Inc.), >95% purity
B7: pS peptide, CDC25A residues 173–186 (peptide)
peptide: Ac-TQRQN[pS]APARMLSS-NH2
SMILES: CSCC[C@H](NC(=O)[C@H](CCCNC(=N)N)NC(=O)[C@H](C)NC(=O)[C@@H]1CCCN1C(=O)[C@H](C)NC(=O)[C@H](COP(=O)(O)O)NC(=O)[C@H](CC(N)=O)NC(=O)[C@H](CCC(N)=O)NC(=O)[C@H](CCCNC(=N)N)NC(=O)[C@H](CCC(N)=O)NC(=O)[C@@H](NC(C)=O)[C@@H](C)O)C(=O)N[C@@H](CC(C)C)C(=O)N[C@@H](CO)C(=O)N[C@@H](CO)C(N)=O
notes: CDC25A residues 173-186, with phosphoserine at 178; also called parent pS peptide; source: synthetic peptide (Biosynth International Inc.), >95% purity

Experiments:
[1] = biological target: T1, 14-3-3ε; assay: Differential scanning fluorimetry (DSF), melting temperature shift of 14-3-3ε; format: binding; details: 30 μM peptide, 2 µM 14-3-3ε, SYPRO-orange, 20 mM TRIS, 150 mM NaCl, 1 mM DTT, pH 7.4, average ± SD of n ≥ 5
Experimental: (§1) The binding of the peptides to 14-3-3ε was further assessed using differential scanning fluorometry (DSF) and surface plasmon resonance (SPR) measurements. DSF was used to determine the effects of the peptides on the melting temperature (Tm) of 14-3-3ε (Table 4, Figure 6 and Figure S4). The pS peptide caused an increase in melting temperature (ΔTm) of 0.35 ± 0.16 °C, while pS(174–182) induced no ΔTm. The Phe and Tyr substitutions in position 176 led to ΔTm of 1.08 ± 0.34 °C and 1.10 ± 0.32 °C, respectively. Lys, Phe, and Tyr substitutions in position 179 led to ΔTm of between 0.00 and 0.23 °C (Table 4). To quantitatively determine the affinity of the peptides for 14-3-3ε protein using SPR, His-tagged protein was immobilized on a nitrilotriacetic acid (Ni-NTA) sensor chip, and then binding of the peptides analogs to the protein was determined.
Thermal unfolding of 14-3-3ε (2 µM) and its complex with peptides (30 μM) was monitored in the presence of a hydrophobic protein-binding dye, SYPRO-orange (Invitrogen, Carlsbad, CA, USA), using the BioRad CFX384 Touchreal-time PCR (Hercules, CA, USA). The assays were performed in 20 mM TRIS, 150 mM NaCl, 1 mM DTT, and pH 7.4 buffer. The first derivative of the melting curves was plotted using GraphPad Prism software, version 10.0.3 to determine Tm of the protein. ΔTm was determined as the difference between Tm of 14-3-3ε in the presence of a peptide and Tm of 14-3-3ε alone.

[2] = biological target: T1, 14-3-3ε; assay: Surface plasmon resonance (SPR), steady-state affinity on immobilized His6-14-3-3ε; format: binding
Experimental: as §1
The SPR analyses were carried out using the Biacore 8K surface plasmon resonance instrument (Cytiva, Marlborough, MA, USA). A total of 100 nM His6-14-3-3ε was immobilized on the NiCl2-activated NTA chip (Cytiva, Marlborough, MA, USA) as previously described. Then, different concentrations of peptide in the range of 0−500 μM (depending on the peptide) were injected. The experiments were performed in 20 mM TRIS, 150 mM NaCl, 50 μM EDTA, 0.005% Tween 20, and pH 7.4 buffer. The affinities of the peptides binding to 14-3-3ε were determined by fitting the data to a steady-state binding model using Biacore Insight Evaluation Software (version 5.0.18.22102).

[3] = system: cSCC cells; details: read-out: IC50, death of cSCC cells; cited from earlier work
[4] = biological target: T2, (His)6-14-3-3ε; assay: SPR; Biacore 8K; 100 nM His6-14-3-3ε immobilized on NiCl2-activated NTA chip; peptides injected at 0-500 μM (depending on the peptide); 20 mM TRIS, 150 mM NaCl, 50 μM EDTA, 0.005% Tween 20, pH 7.4; steady-state binding model; details: both partners purified
[5] = biological target: T2, (His)6-14-3-3ε; assay: as above; details: both partners purified; remark: listed apart in the source
[6] = biological target: T2, (His)6-14-3-3ε; assay: differential scanning fluorimetry; 14-3-3ε 2 µM with peptide 30 μM, SYPRO-orange; 20 mM TRIS, 150 mM NaCl, 1 mM DTT, pH 7.4; ΔTm = Tm with peptide minus Tm of 14-3-3ε alone; details: both partners purified

| Molecule | ΔTm (melting temperature shift of 14-3-3ε) [1] | ΔG ± SD (free energy of binding derived from KD) [2] | Kd [5] | other results |
| --- | --- | --- | --- | --- |
| CC(=O)N[C@@H](CCC(N)=O)C(=O)N[C@@H](CCCNC(=N)N)C(=O)N[C@@H](Cc1ccccc1)C(=O)N[C@@H](CC(N)=O)C(=O)N[C@@H](COP(=O)(O)O)C(=O)N[C@@H](C)C(=O)N1CCC[C@H]1C(=O)N[C@@H](C)C(=O)N[C@@H](CCCNC(=N)N)C(N)=O [[Phe^176]pS(174–182)] (Ac-QRFN[pS]APAR-NH2) | 1.08 ± 0.34 °C | – | – | – |
| CC(=O)N[C@@H](CCC(N)=O)C(=O)N[C@@H](CCCNC(=N)N)C(=O)N[C@@H](CCC(N)=O)C(=O)N[C@@H](CC(N)=O)C(=O)N[C@@H](COP(=O)(O)O)C(=O)N[C@@H](Cc1ccc(O)cc1)C(=O)N1CCC[C@H]1C(=O)N[C@@H](C)C(=O)N[C@@H](CCCNC(=N)N)C(N)=O [[Tyr^179]pS(174–182)] (Ac-QRQN[pS]YPAR-NH2) | 0 °C | -5.37 ± 0.0932 kcal/mol | – | – |
| CC(=O)N[C@@H](CCC(N)=O)C(=O)N[C@@H](CCCNC(=N)N)C(=O)N[C@@H](CCC(N)=O)C(=O)N[C@@H](CC(N)=O)C(=O)N[C@@H](COP(=O)(O)O)C(=O)N[C@@H](C)C(=O)N1CCC[C@H]1C(=O)N[C@@H](C)C(=O)N[C@@H](CCCNC(=N)N)C(N)=O [pS(174–182)] (Ac-QRQN[pS]APAR-NH2) | – | -6.874 ± 0.055 kcal/mol | – | – |
| CSCC[C@H](NC(=O)[C@H](CCCNC(=N)N)NC(=O)[C@H](C)NC(=O)[C@@H]1CCCN1C(=O)[C@H](C)NC(=O)[C@H](COP(=O)(O)O)NC(=O)[C@H](CC(N)=O)NC(=O)[C@H](CCC(N)=O)NC(=O)[C@H](CCCNC(=N)N)NC(=O)[C@H](CCC(N)=O)NC(=O)[C@@H](NC(C)=O)[C@@H](C)O)C(=O)N[C@@H](CC(C)C)C(=O)N[C@@H](CO)C(=O)N[C@@H](CO)C(N)=O [pS] (Ac-TQRQN[pS]APARMLSS-NH2) | 0.35 ± 0.16 °C | -9.073 ± 0.022 kcal/mol | – | IC50 [3]: 29 µM |
| CC(=O)N[C@@H](CCC(N)=O)C(=O)N[C@@H](CCCNC(=N)N)C(=O)N[C@@H](CCC(N)=O)C(=O)N[C@@H](CC(N)=O)C(=O)N[C@@H](COP(=O)(O)O)C(=O)N[C@@H](Cc1ccccc1)C(=O)N1CCC[C@H]1C(=O)N[C@@H](C)C(=O)N[C@@H](CCCNC(=N)N)C(N)=O [[Phe^179]pS(174–182)] (Ac-QRQN[pS]FPAR-NH2) | 0 °C | -5.772 ± 0.048 kcal/mol | – | – |
| CC(=O)N[C@@H](CCC(N)=O)C(=O)N[C@@H](CCCNC(=N)N)C(=O)N[C@@H](CCC(N)=O)C(=O)N[C@@H](CCCCN)C(=O)N[C@@H](COP(=O)(O)O)C(=O)N[C@@H](C)C(=O)N1CCC[C@H]1C(=O)N[C@@H](C)C(=O)N[C@@H](CCCNC(=N)N)C(N)=O [[Lys^177]pS(174–182)] (Ac-QRQK[pS]APAR-NH2) | 0.23 ± 0.09 °C | -7.199 ± 0.055 kcal/mol | – | – |
| CC(=O)N[C@@H](CCC(N)=O)C(=O)N[C@@H](CCCNC(=N)N)C(=O)N[C@@H](Cc1ccc(O)cc1)C(=O)N[C@@H](CC(N)=O)C(=O)N[C@@H](COP(=O)(O)O)C(=O)N[C@@H](C)C(=O)N1CCC[C@H]1C(=O)N[C@@H](C)C(=O)N[C@@H](CCCNC(=N)N)C(N)=O [[Tyr^176]pS(174–182)] (Ac-QRYN[pS]APAR-NH2) | 1.10 ± 0.32 °C | -8.786 ± 0.11 kcal/mol | – | – |
| B1 | – | – | 9.05 µM | Kd [4]: 6.56 ± 2.16 µM |
| B2 | – | – | 5.23 µM | – |
| B3 | – | – | 58.3 µM | – |
| B4 | – | – | 116 µM | – |
| B5 | – | – | 0.36 µM | ΔTm [6]: 1.08 °C |
| B6 | – | – | 0.41 µM | ΔTm [6]: 1.1 °C |
| B7 | – | – | 0.22 µM | ΔTm [6]: 0.35 °C |
